The record followed here is article PMC6637425 (ChemMedChem, 2019).

The target of one assay is T1, BACE2 enzyme (Homo sapiens, UniProt Q9Y5Z0).
T1 sequence (Q9Y5Z0 63-518): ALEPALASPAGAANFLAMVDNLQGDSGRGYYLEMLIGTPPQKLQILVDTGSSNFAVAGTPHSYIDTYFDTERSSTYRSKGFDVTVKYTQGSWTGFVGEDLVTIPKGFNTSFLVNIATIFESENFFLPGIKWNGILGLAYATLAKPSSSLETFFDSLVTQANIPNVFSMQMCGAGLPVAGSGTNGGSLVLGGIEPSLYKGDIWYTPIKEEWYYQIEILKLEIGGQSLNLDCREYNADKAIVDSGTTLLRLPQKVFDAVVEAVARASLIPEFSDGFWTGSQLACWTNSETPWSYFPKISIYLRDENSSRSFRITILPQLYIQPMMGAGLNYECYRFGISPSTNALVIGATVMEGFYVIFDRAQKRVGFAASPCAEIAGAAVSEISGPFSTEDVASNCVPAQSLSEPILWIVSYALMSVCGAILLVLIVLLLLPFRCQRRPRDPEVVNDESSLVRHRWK
The experiment in a line: BACE2 enzyme inhibition, Ki from kinetic data under tight-binding conditions. As to conditions: for selectivity for BACE2 over BACE1: ratio of Ki values. Format: biochemical.

In another assay the target is BACE1 enzyme (Homo sapiens, UniProt P56817). Briefly: BACE1 enzyme inhibition, Ki from kinetic data under tight-binding conditions. Format: biochemical.
The mark [1] stands for this setting: read-out: Ki (nM) BACE2, Table 3.
[2] abbreviates: read-out: Ki (nM) BACE1, Table 3.
Setting [3] is: Ki (nM) BACE2, Table 1, new inhibitors 2f-j.
The mark [4] stands for this setting: Ki (nM) BACE1, Table 1, new inhibitors 2f-j.
Setting [5] is: read-out: Ki (nM) BACE2, Table 2.
[6] abbreviates: read-out: Ki (nM) BACE1, Table 2.

Read-outs that look alike come from different tables or passages of the source.

Chain of BACE1 enzyme (P56817 46-501): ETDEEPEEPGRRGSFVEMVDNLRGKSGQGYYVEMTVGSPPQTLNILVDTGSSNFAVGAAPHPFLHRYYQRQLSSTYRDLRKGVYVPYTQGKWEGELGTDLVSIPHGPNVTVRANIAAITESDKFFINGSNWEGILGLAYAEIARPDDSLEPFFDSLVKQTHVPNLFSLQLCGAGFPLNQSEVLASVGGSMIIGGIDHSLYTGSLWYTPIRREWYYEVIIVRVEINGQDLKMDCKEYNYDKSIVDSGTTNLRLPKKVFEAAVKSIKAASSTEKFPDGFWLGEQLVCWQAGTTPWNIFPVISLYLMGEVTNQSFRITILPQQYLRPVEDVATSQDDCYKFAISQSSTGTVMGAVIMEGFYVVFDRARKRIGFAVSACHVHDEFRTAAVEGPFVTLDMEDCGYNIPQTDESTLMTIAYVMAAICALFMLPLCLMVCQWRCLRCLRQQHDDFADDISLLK

By Ki is commonly meant the equilibrium dissociation constant of an inhibitor or competing ligand from its target. Take `COc1cccc(CNC[C@@H](O)[C@H](Cc2ccccc2)NC(=O)c2cc(C)cc(C(=O)N(C)C(C)c3nc(C)co3)c2)c1` (mixture of isomers) [inhibitor 3o, N^1-((2S,3R)-3-Hydroxy-4-((3-methoxybenzyl)ammo)-1-phenylbutan-2-yl)-N^3,5-dimethyl-N^3-(1-(4-methyloxazol-2-yl)ethyl)isophthalamide]: the “selectivity for BACE2 over BACE1” value at BACE2 enzyme is “no appreciable selectivity”. In addition, the inhibitory constant (Ki) on BACE2 enzyme (setting [1]) was found to be 801 nM; on BACE1 enzyme (setting [2]), 767 nM.

`COC[C@H]1CCCN1C(=O)c1cccc(C(=O)N[C@@H](Cc2ccccc2)[C@H](O)CN[C@H](C(=O)NCC(C)C)[C@H](C)O)c1` [inhibitor 2f, N-((2S,3R)-3-Hydroxy-4-(((2S,3S)-3-hydroxy-1-(isobutylamino)-1-oxobutan-2-yl)amino)-1-phenylbutan-2-yl)-3-((R)-2-(methoxymethyl)pyrrolidine-1-carbonyl)benzamide]: the Ki at BACE2 enzyme (setting [3]) turned out to be 1370 nM; at BACE1 enzyme (setting [4]), 3020 nM.

Take `CCC[C@H](O)[C@H](NC[C@@H](O)[C@H](Cc1ccccc1)NC(=O)c1cc(C)cc(C(=O)N2CCC[C@@H]2COC)c1)C(=O)NCC(C)C` [inhibitor 2g, N-((2S,3R)-3-Hydroxy-4-(((2S,3S)-3-hydroxy-1-(isobutylamino)-1-oxohexan-2-yl)amino)-1-phenylbutan-2-yl)-3-((R)-2-(methoxymethyl)pyrrolidine-1-carbonyl)-5-methylbenzamide]: the inhibition constant (Ki) came to 27.9 nM on BACE2 enzyme (setting [3]) and 6.6 nM on BACE1 enzyme (setting [4]).

`Cc1cc(C(=O)N[C@@H](Cc2ccccc2)[C@H](O)CN[C@H](C(=O)NCC(C)C)[C@H](C)O)cc(C(=O)N(C)Cc2nc(C)cs2)c1` [inhibitor 2h, N^1-((2S,3R)-3-Hydroxy-4-(((2S,3S)-3-hydroxy-1-(isobutylamino)-1-oxobutan-2-yl)amino)-1-phenylbutan-2-yl)-N^3,5-dimethyl-N^3-((4-methylthiazol-2-yl)methyl)isophthalamide]: the values for the inhibitory constant (Ki) at BACE2 enzyme (setting [3]) and at BACE1 enzyme (setting [4]) were 96.9 nM and 176 nM, respectively. In addition, at BACE2 enzyme, the “selectivity for BACE2 over BACE1” value turned out to be 2 fold.

Turning to `CCC[C@H](O)[C@H](NC[C@@H](O)[C@H](Cc1ccccc1)NC(=O)c1cccc(C(=O)N(C)Cc2nc(C)cs2)c1)C(=O)NCC(C)C` [inhibitor 2i, N^1-((2S,3R)-3-Hydroxy-4-(((2S,3S)-3-hydroxy-1-(isobutylamino)-1-oxohexan-2-yl)amino)-1-phenylbutan-2-yl)-N^3-methyl-N^3-((4-methylthiazol-2-yl)methyl)isophthalamide], the Ki on BACE2 enzyme (setting [3]) worked out at 51.1 nM; at BACE1 enzyme (setting [4]) it was 33.1 nM.

For `CCC[C@H](O)[C@H](NC[C@@H](O)[C@H](Cc1ccccc1)NC(=O)c1cc(C)cc(C(=O)N(C)Cc2nc(C)cs2)c1)C(=O)NCC(C)C` [inhibitor 2j, N^1-((2S,3R)-3-Hydroxy-4-(((2S,3S)-3-hydroxy-1-(isobutylamino)-1-oxohexan-2-yl)amino)-1-phenylbutan-2-yl)-N^3,5-dimethyl-N^3-((4-methylthiazol-2-yl)methyl)isophthalamide], the Ki at BACE2 enzyme (setting [3]) turned out to be 25.3 nM; on BACE1 enzyme (setting [4]), 34.2 nM.

Take `COc1cccc([C@@H](NC[C@@H](O)[C@H](Cc2ccccc2)NC(=O)c2cc(C(=O)N[C@H](C)c3ccccc3)cc(N(C)S(C)(=O)=O)c2)[C@H](C)O)c1` [inhibitor 3a, N^1-((2S,3R)-3-Hydroxy-4-(((1R,2S)-2-hydroxy-1-(3-methoxyphenyl)propyl)ammo)-1-phenylbutan-2-yl)-5-(N-methylmethylsulfonamido)-N^3-((R)-1-phenylethyl)isophthalamide]: the inhibition constant Ki on BACE2 enzyme (read-out: BACE2 Ki) turned out to be 731 nM; on BACE2 enzyme (setting [5]) it was 731 nM; on BACE1 enzyme (read-out: BACE1 Ki), 205 nM; at BACE1 enzyme (setting [6]) it was 205 nM.

`COc1cccc([C@@H](NC[C@@H](O)[C@H](Cc2ccccc2)NC(=O)c2cc(C(=O)N(C)[C@H](C)c3ccccc3)cc(N(C)S(C)(=O)=O)c2)[C@H](C)O)c1` [inhibitor 3b, N^1-((2S,3R)-3-Hydroxy-4-(((1R,2S)-2-hydroxy-1-(3-methoxyphenyl)propyl)ammo)-1-phenylbutan-2-yl)-N^3-methyl-5-(N-methylmethylsulfonamido)-N^3-((R)-1-phenylethyl)isophthalamide]: the inhibition constant (Ki) worked out at 479 nM at BACE2 enzyme (setting [5]) and 4850 nM at BACE1 enzyme (setting [6]).

On to `COc1cccc([C@@H](NC[C@@H](O)[C@H](Cc2ccccc2)NC(=O)c2cccc(C(=O)N(C)[C@H](C)c3ccccc3)c2)[C@H](C)O)c1` [inhibitor 3c, N^1-((2S,3R)-3-Hydroxy-4-(((1R,2S)-2-hydroxy-1-(3-methoxyphenyl)propyl)ammo)-1-phenylbutan-2-yl)-N^3-methyl-N^3-((R)-1-phenylethyl)isophthalamide], for which, on BACE2 enzyme, the “selectivity for BACE2 over BACE1” value worked out at 54 fold. Further, the Ki at BACE2 enzyme (setting [5]) was 950 nM; at BACE1 enzyme (setting [6]), 51300 nM.

On to `COc1cccc([C@@H](NC[C@@H](O)[C@H](Cc2ccccc2)NC(=O)c2cc(C)cc(C(=O)N(C)[C@H](C)c3ccccc3)c2)[C@H](C)O)c1` [inhibitor 3d, N^1-((2S,3R)-3-Hydroxy-4-(((1R,2S)-2-hydroxy-1-(3-methoxyphenyl)propyl)amino)-1-phenylbutan-2-yl)-N^3,5-dimethyl-N^3-((R)-1-phenylethyl)isophthalamide], for which the Ki at BACE2 enzyme (Ki (nM) BACE2, Table 2) came out at 480 nM; on BACE1 enzyme (Ki (nM) BACE1, Table 2) it was 16200 nM. In addition, the “selectivity for BACE2 over BACE1” value at BACE2 enzyme stood at 34 fold.

Consider `CCC[C@H](O)[C@H](NC[C@@H](O)[C@H](Cc1ccccc1)NC(=O)c1cccc(C(=O)N(C)[C@H](C)c2ccccc2)c1)c1cccc(OC)c1` [inhibitor 3e, N^1-((2S,3R)-3-Hydroxy-4-(((1R,2S)-2-hydroxy-1-(3-methoxyphenyl)pentyl)amino)-1-phenylbutan-2-yl)-N^3-methyl-N^3-((R)-1-phenylethyl)isophthalamide], for which the inhibition constant (Ki) was 243 nM on BACE2 enzyme (Ki (nM) BACE2, Table 2) and 38600 nM at BACE1 enzyme (Ki (nM) BACE1, Table 2). For the same compound, at BACE2 enzyme, the “selectivity for BACE2 over BACE1” value is reported as 159 fold.

On to `CCC[C@H](O)[C@H](NC[C@@H](O)[C@H](Cc1ccccc1)NC(=O)c1cc(C)cc(C(=O)N(C)[C@H](C)c2ccccc2)c1)c1cccc(OC)c1` [inhibitor 3f, N^1-((2S,3R)-3-Hydroxy-4-(((1R,2S)-2-hydroxy-1-(3-methoxyphenyl)pentyl)ammo)-1-phenylbutan-2-yl)-N^3,5-dimethyl-N^3-((R)-1-phenylethyl)isophthalamide], for which the “selectivity for BACE2 over BACE1” value at BACE2 enzyme stood at 62 fold. Besides, the results for the inhibition constant (Ki) on BACE2 enzyme (setting [5]) and on BACE1 enzyme (setting [6]) were 141 nM and 8800 nM, respectively.

Take `CCC[C@H](O)[C@H](NC[C@@H](O)[C@H](Cc1ccccc1)NC(=O)c1cccc(C(=O)N(C)[C@H](C)c2ccccc2)c1)c1ccccc1` [inhibitor 3g, N^1-((2S,3R)-3-Hydroxy-4-(((1R,2S)-2-hydroxy-1-phenylpentyl)ammo)-1-phenylbutan-2-yl)-N^3-methyl-N^3-((R)-1-phenylethyl)isophthalamide]: the Ki on BACE2 enzyme (setting [5]) amounted to 2550 nM; on BACE1 enzyme (setting [6]) it was 42500 nM.

As for `CCC[C@H](O)[C@H](NC[C@@H](O)[C@H](Cc1ccccc1)NC(=O)c1cc(C)cc(C(=O)N(C)[C@H](C)c2ccccc2)c1)c1ccccc1` [inhibitor 3h, N^1-((2S,3R)-3-Hydroxy-4-(((1R,2S)-2-hydroxy-1-phenylpentyl)amino)-1-phenylbutan-2-yl)-N3,5-dimethyl-N^3-((R)-1-phenylethyl)isophthalamide], the inhibitory constant (Ki) turned out to be 905 nM on BACE2 enzyme (Ki (nM) BACE2, Table 2) and 18100 nM on BACE1 enzyme (Ki (nM) BACE1, Table 2).

`COc1cccc(CNC[C@@H](O)[C@H](Cc2ccccc2)NC(=O)c2cccc(C(=O)N(C)[C@H](C)c3ccccc3)c2)c1` [inhibitor 3i, N^1-((2S,3R)-3-Hydroxy-4-((3-methoxybenzyl)ammo)-1-phenylbutan-2-yl)-N^3-methyl-N^3-((R)-1-phenylethyl)isophthalamide]: the values for the inhibition constant (Ki) at BACE2 enzyme (read-out: BACE2 Ki), on BACE2 enzyme (setting [1]) and on BACE1 enzyme (setting [2]) were 39.4 nM, 39.5 nM and 2080 nM, respectively.

Take `COc1cccc(CNC[C@@H](O)[C@H](Cc2ccccc2)NC(=O)c2cc(C)cc(C(=O)N(C)[C@H](C)c3ccccc3)c2)c1` [inhibitor 3j, N^1-((2S,3R)-3-Hydroxy-4-((3-methoxybenzyl)ammo)-1-phenylbutan-2-yl)-N3,5-dimethyl-N^3-((R)-1-phenylethyl)isophthalamide]: the “selectivity for BACE2 over BACE1” value on BACE2 enzyme is around 60 fold. Besides, the inhibition constant Ki on BACE2 enzyme (setting [1]) amounted to 14 nM; on BACE1 enzyme (setting [2]), 837 nM.

For the compound `C[C@H](c1ccccc1)N(C)C(=O)c1cccc(C(=O)N[C@@H](Cc2ccccc2)[C@H](O)CNCc2cccc(C(F)(F)F)c2)c1` [inhibitor 3k, N^1-((2S,3R)-3-Hydroxy-1-phenyl-4-((3-(trifluoromethyl)benzyl)amino)butan-2-yl)-N^3-methyl-N^3-((R)-1-phenylethyl)isophthalamide], the inhibition constant (Ki) at BACE2 enzyme (BACE2 Ki) amounted to 35.7 nM; at BACE2 enzyme (Ki (nM) BACE2, Table 3) it was 35.7 nM; on BACE1 enzyme (Ki (nM) BACE1, Table 3), 1350 nM. On BACE2 enzyme, the “selectivity for BACE2 over BACE1” value is reported as 37 fold.

For `Cc1cc(C(=O)N[C@@H](Cc2ccccc2)[C@H](O)CNCc2cccc(C(F)(F)F)c2)cc(C(=O)N(C)[C@H](C)c2ccccc2)c1` [inhibitor 3l, N^1-((2S,3R)-3-Hydroxy-1-phenyl-4-((3-(trifluoromethyl)benzyl)ammo)butan-2-yl)-N^3,5-dimethyl-N^3-((R)-1-phenylethyl)isophthalamide], the “selectivity for BACE2 over BACE1” value on BACE2 enzyme is “over 500 fold”. The Ki at BACE2 enzyme (setting [1]) is 1.6 nM; at BACE1 enzyme (setting [2]), 815 nM.
